# Data as given in patent US6297268A, “Imidazoles as cholesterol lowering agents” (Schering Corporation, priority 1999, dated 2001).
# How the values were obtained:
# [1] = Plasma analysis to confirm absorption in rats; assay type: in vivo, rat (Crl:CD(SD)BR VAF/Plus); details: oral, plasma analysis after one and 14 doses
# Protocol: Six-week-old rats (Rat/Crl:CD®(SD)BR VAF/Plus®, supplied by Charles River Laboratories, Kingston, N.Y.; ten rats per sex per group) were given single daily oral doses (via gavage tube) of the compound of Formula II (30, 100 or 300 mg/kg of body weight of the rat) as the above-stated suspension for 15 to 16 days. […] The rats were housed individually in suspended stainless steel wire mesh cages and were fed with a meal of Certified Rodent Diet® 5002 available from PMI® Feeds, Incorporated, St. Louis, Mo. Tap water was provided ad libitum during the study period. […]
# [2] = Plasma levels and pharmacokinetics in monkeys; assay type: in vivo, cynomolgus monkey (Macaca fascicularis); details: oral, plasma levels after one and 16 doses
# Protocol: (§1) Adult cynomolgus monkeys (four per sex per group, Macaca fascicularis monkey, supplied by Charles River BRF Incorporated, Houston, Tex.) were given single daily oral doses (gavage) of the compound of Formula II (30, 100 or 300 mg/kg of body weight) in the form of the above-stated suspension for 16 to 18 days. […] The monkeys were fed with nutritionally adequate amounts of PMI Inc. Certified Primate Diet® #46 (available from PMI Feeds, Incorporated) daily, at least one hour after dosing was completed. Certified monkey treats were offered daily. Tap water was provided ad libitum. Blood was collected and serum chemistry parameters were measured twice pretest and after 14 daily doses (22 hours after the 14th dose).
# [3] = system: serum cholesterol; assay: Cholesterol lowering properties of the compound of Formula II in monkeys: serum cholesterol; assay type: in vivo, cynomolgus monkey (Macaca fascicularis); details: for % change in group mean serum cholesterol from last pretest to after 14 doses: daily oral (gavage), 22 hours after 14th dose
# Protocol: (§2) Similar to Example 2, a homogeneous suspension of the compound of Formula II in aqueous methyl cellulose (0.4 percent weight/volume) was prepared for these studies and stored at ambient temperature conditions. The amount of the suspension fed to each monkey was calculated to provide the desired dosage of the compound of Formula II (given below) for that monkey.
# as §1
# Mild to moderate decreases in serum cholesterol, compared with pretest and concurrent and/or historical control data, occurred in all dosed monkeys. The decreases were generally dose-dependent, except that there was no real difference between mid- and high-dose females.
# [4] = system: serum triglyceride; assay: Cholesterol lowering properties of the compound of Formula II in rats: serum triglycerides; assay type: in vivo, rat (Crl:CD(SD)BR VAF/Plus); details: for Group Mean Serum Triglyceride Concentrations: single daily oral doses (gavage)
# Protocol: as §2, with “A” for “Similar to Example 2, a”, “(aqueous methyl cellulose concentration: 0.4” for “(0.4”, “rat” for “monkey”, “(see” for “(given”, “rat.” for “monkey.”
# (§3) Six-week-old rats (Rat/Crl:CD®(SD)BR VAF/Plus®, supplied by Charles River Laboratories, Kingston, N.Y.; ten rats per sex per group) were given single daily oral doses (via gavage tube) of the compound of Formula II (30, 100 or 300 mg/kg of body weight of the rat) as the above-stated suspension for 15 to 16 days. […] The rats were housed individually in suspended stainless steel wire mesh cages and were fed with a meal of Certified Rodent Diet® 5002 available from PMI® Feeds, Incorporated, St. Louis, Mo. Tap water was provided ad libitum during the study period. Blood was collected at necropsy over two days (after 15-16 doses), and serum chemistry parameters were measured.
# (§4) The results obtained at necropsy (after 15-16 doses) are given in Table 1 for both the male and female rats: […]
# [5] = system: serum cholesterol; assay: Cholesterol lowering properties of the compound of Formula II in rats: serum cholesterol; assay type: in vivo, rat (Crl:CD(SD)BR VAF/Plus); details: for Group Mean Serum Cholesterol: single daily oral doses (gavage), at necropsy after 15-16 doses; for serum cholesterol (result in words): oral
# Protocol: as §2, with “A” for “Similar to Example 2, a”, “(aqueous methyl cellulose concentration: 0.4” for “(0.4”, “rat” for “monkey”, “(see” for “(given”, “rat.” for “monkey.”
# as §3, §4
smiles,measurement,setting,value
O=C(NCc1ccc(Cc2c[nH]cn2)cc1)Nc1cc(Cl)cc(Cl)c1 [compound of Formula II],absorption (result in words),[1],confirm absorption
same,absorption (result in words),[2],confirm absorption
same,cholesterol (result in words),"[3]; all monkeys dosed with 30, 100 or 300 mg/kg, oral",mildly to moderately decreased cholesterol
same,% change in group mean serum cholesterol from last pretest to after 14 doses,"[3]; female monkeys, 30 mg/kg, control -03",-24%
same,% change in group mean serum cholesterol from last pretest to after 14 doses,"[3]; female monkeys, 100 mg/kg, control -03, *n=3, excludes No. 22F, sacrificed on Day 9",-63%
same,% change in group mean serum cholesterol from last pretest to after 14 doses,"[3]; female monkeys, 300 mg/kg, control -03",-59%
same,% change in group mean serum cholesterol from last pretest to after 14 doses,"[3]; male monkeys, 30 mg/kg, control +02",-25%
same,% change in group mean serum cholesterol from last pretest to after 14 doses,"[3]; male monkeys, 100 mg/kg, control +02",-46%
same,% change in group mean serum cholesterol from last pretest to after 14 doses,"[3]; male monkeys, 300 mg/kg, control +02",-61%
same,Group Mean Serum Triglyceride Concentrations,"[4]; female rats, 30 mg/kg, at necropsy after 15-16 doses, control 22.4",20.5 mg/dL
same,Group Mean Serum Triglyceride Concentrations,"[4]; female rats, 100 mg/kg, after 15-16 doses, control 22.4, *group mean excludes individuals with values <10, actual mean would be lower",13.6 mg/dL
same,Group Mean Serum Triglyceride Concentrations,"[4]; female rats, 300 mg/kg, after 15-16 doses, control 22.4, *group mean excludes individuals with values <10, actual mean would be lower",16.3 mg/dL
same,serum triglyceride (result in words),"[4]; male and female rats, 100 or 300 mg/kg, oral",Lower serum triglyceride concentrations
same,Group Mean Serum Triglyceride Concentrations,"[4]; male rats, 30 mg/kg, at necropsy after 15-16 doses, control 40.7",37.2 mg/dL
same,Group Mean Serum Triglyceride Concentrations,"[4]; male rats, 100 mg/kg, at necropsy after 15-16 doses, control 40.7",27.8 mg/dL
same,Group Mean Serum Triglyceride Concentrations,"[4]; male rats, 300 mg/kg, at necropsy after 15-16 doses, control 40.7",21.2 mg/dL
same,Group Mean Serum Cholesterol,"[5]; female rats, 30 mg/kg, control 29.7",26.5 mg/dL
same,Group Mean Serum Cholesterol,"[5]; female rats, 100 mg/kg, control 29.7",19.4 mg/dL
same,Group Mean Serum Cholesterol,"[5]; female rats, 300 mg/kg, control 29.7",16.0 mg/dL
same,serum cholesterol (result in words),"[5]; female rats, 100 or 300 mg/kg, compared with concurrent control",Lower serum cholesterol concentrations
same,Group Mean Serum Cholesterol,"[5]; male rats, 30 mg/kg, control 34.7",20.9 mg/dL
same,Group Mean Serum Cholesterol,"[5]; male rats, 100 mg/kg, control 34.7",16.9 mg/dL
same,Group Mean Serum Cholesterol,"[5]; male rats, 300 mg/kg, control 34.7",12.3 mg/dL
same,serum cholesterol (result in words),"[5]; male rats, 30, 100 or 300 mg/kg",dose-dependent lower serum cholesterol
